IC50 data for seven molecules are collected here from patent publication US20230192720A1, “MACROCYCLIC COMPOUNDS” (ZENO MANAGEMENT, INC., priority 2019, published 2023).

A value given as a limit tells only on which side of the number the result lay.

The first experiment relates to NCI-H929 cells. Put plainly: NCI-H929 cell proliferation assay (CellTiter-Glo). The class given is cell-based. The following applies: 72 h compound treatment. The method, then: NCI-H929 Cell Proliferation Assay
Cell proliferation was measured using the CellTiter-Glo® Luminescent Cell Viability Assay. The assay involved the addition of a single reagent (CellTiter-Glo® Reagent) directly to cells cultured in serum-supplemented medium. NCI-H929 (ATCC CRL-9068) cells were cultured according to ATCC recommendations and were seeded at 3,000 cells per well.
Each compound evaluated was prepared as a DMSO stock solution (10 mM). Compounds were tested in duplicate on each plate, with a 10-point serial dilution curve (1:3 dilution). Compound treatment ([…]) was added from the compound dilution plate to the cell plate. The highest compound concentration was 10 μM (final), with a 0.1% final DMSO concentration. Plates were then incubated at 37° C., 5% CO2. After 72 h of compound treatment, cell plates were equilibrated at rt for approximately 30 mins. An equi-volume amount of CellTiter-Glo® Reagent (40 μL) was added to each well. Plates were mixed for 2 mins on an orbital shaker to induce cell lysis and then incubated at rt for 10 mins to stabilize the luminescent signal. Luminescence was recorded using an Envision plate reader according to CellTiter-Glo protocol. IC50 of each compound was calculated using GraphPad Prism by nonlinear regression analysis.
As a reminder, the IC50 is the concentration at which inhibition is half-maximal. `Cc1nn(C23CC(C2)C3)c2c1-c1c(Cl)ccc3c(c(C(=O)O)n(C)c13)CCCOc1cc(cc3c1NCCC3)SCc1cc(nn1C)CSC2` (atropisomer, axis not shown; (Ra)) [Example 9A, (Ra)-(+)-(Z)-2^1-(Bicyclo [1.1.1]pentan-1-yl)-1^6-chloro-1^1,2^3,6^1-trimethyl-9^1,9^2,9^3,9^4-tetrahydro-1^1H,2^1H,6^1H-10-oxa-4,8-dithia-9(6,8)-quinolina-1(7,3)-indola-2(4,5),6(3,5)-dipyrazolacyclotridecaphane-1^2-carboxylic acid] came in with an IC50 of no less than 1000 nM. In turn, `CN1Cc2cc(n(C)n2)CCc2cc3c(c(c2)OCCCc2c(C(=O)O)n(C)c4c(c(Cl)ccc24)-c2c(nn4c2CCC4)C1)NCCC3` (atropisomer, axis not shown; (Ra)) [Example 5A, (Ra)-(+)-(Z)-1^6-Chloro-1^1,6^1,4-trimethyl-2^5,2^6,9^1,9^2,9^3,9^4-hexahydro-1^1H,2^4H,6^1H-10-oxa-4-aza-9(6,8)-quinolina-1(7,3)-indola-2(3,2)-pyrrolo[1,2-b]pyrazola-6(3,5)-pyrazolacyclotridecaphane-1^2-carboxylic acid] showed an IC50 of no more than 100 nM.

Turning to `Cc1nn(C23CC(C2)C3)c2c1-c1c(F)ccc3c(c(C(=O)O)n(C)c13)CCCOc1cc(cc3c1NCCC3)SCc1cc(nn1C)CSC2` (atropisomer, axis not shown; (Sa)) [Example 10B, (Sa)-(−)-(Z)-2^1-(Bicyclo[1.1.1]pentan-1-yl)-1^6-fluoro-1^1,2^3,6^1-trimethyl-9^1,9^2,9^3,9^4-tetrahydro-1^1H,2^1H,6^1H-10-oxa-4,8-dithia-9(6,8)-quinolina-1(7,3)-indola-2(4,5),6(3,5)-dipyrazolacyclotridecaphane-1^2-carboxylic acid], the concentration for half-maximal inhibition (IC50) was no more than 100 nM. Same read-out and setting: to `CN1Cc2cc(n(C)n2)CSc2cc3c(c(c2)OCCCc2c(C(=O)O)n(C)c4c(c(Cl)ccc24)-c2c(nn4c2CCCC4)C1)NCCC3` (atropisomer, axis not shown; (Sa)) [Example 4B, (Sa)-(−)-(Z)-1^6-Chloro-1^1,6^1,4-trimethyl-2^4,2^5,2^6,2^7,9^1,9^2,9^3,9^4-octahydro-1^1H,6^1H-10-oxa-8-thia-4-aza-9(6,8)-quinolina-2(3,2)-pyrazolo[1,5-a]pyridina-1(7,3)-indola-6(3,5)-pyrazolacyclotridecaphane-1^2-carboxylic acid] belongs no more than 100 nM; to `CCn1nc(C)c2c1CSCc1cc(n(C)n1)CSc1cc3c(c(c1)OCCCc1c(C(=O)O)n(C)c4c-2c(Cl)ccc14)NCCC3` (atropisomer, axis not shown; (Ra)) [Example 14A, (Ra)-(+)-(Z)-1^6-Chloro-2^1-ethyl-1^1,2^3,6^1-trimethyl-9^1,9^2,9^3,9^4-tetrahydro-1^1H,2^1H,6^1H-10-oxa-4,8-dithia-9(6,8)-quinolina-1(7,3)-indola-2(4,5),6(3,5)-dipyrazolacyclotridecaphane carboxylic acid], no more than 100 nM.

The experiment is the same for the next values; noted with them: Homo sapiens, NCI-H929, 72 h, 72 h compound treatment.
The molecule `CN1CCCc2cc3cc(c21)OCCCc1c(C(=O)O)n(C)c2c(c(Cl)ccc12)-c1c(nn2c1CCC2)CSCc1cc(n(C)n1)CS3` (atropisomer, axis not shown; (Ra)) [Example 13A, (Ra)-(+)-(Z)-1^6-Chloro-1^1,6^1,9^1-trimethyl-2^5,2^6,9^1,9^2,9^3,9^4-hexahydro-1^1H,2^4H,6^1H-10-oxa-4,8-dithia-9(6,8)-quinolina-1(7,3)-indola-2(3,2)-pyrrolo[1,2-b]pyrazola-6(3,5)-pyrazolacyclotridecaphane-1^2-carboxylic acid] yielded an IC50 of no less than 1000 nM.

Molecule `Cn1nc2cc1CSc1cc3c(c(c1)OCCCc1c(C(=O)O)n(C)c4c(c(F)ccc14)-c1c(nn4c1CCC4)CSC2)NCCC3` (atropisomer, axis not shown; (Ra)) [Example 7A, (Ra)-(+)-(Z)-1^6-Fluoro-1^1,6^1-dimethyl-2^5,2^6,9^1,9^2,9^3,9^4-hexahydro-1^1H,2^4H,6^1H-10-oxa-4,8-dithia-9(6,8)-quinolina-1(7,3)-indola-2(3,2)-pyrrolo[1,2-b]pyrazola-6(3,5)-pyrazolacyclotridecaphane-1^2-carboxylic acid] yielded an IC50 of 100 to 1000 nM.
